Test results reported in patent US20200031811A1, “SUBSTITUTED MONO- AND POLYAZANAPHTHALENE DERIVATIVES AND THEIR USE” (Basilea Pharmaceutica International AG, priority 2015, published 2020).

Experiments:
MNK1 = molecular target: T1, MNK1 (Homo sapiens, UniProt Q9BUB5); test: MNK inhibition assay (Z-Lyte kinase assay, Ser/Thr 7 peptide); format: biochemical; settings: recombinant GST-MNK1, 3 hours at 31° C.
T1 construct: purchased Life Technologies or Carna Biosciences PV6023 or 02-145; host or cells: baculovirus infected insect cells
How it was run: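 Recombinant GST-MNK1 from baculovirus-infected insect cells, Z-Lyte Ser/Thr 7 peptide, enzyme set for ~30% phosphorylation in buffer-only wells; 3 hours at 31° C. Compounds at 50–10000 nM (potent ones down to 0.5 nM), at least duplicate. IC50 from % substrate phosphorylation versus buffer-only wells, fluorescence read-out.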

[1] = test system: human pancreatic cancer cell line MiaPaCa2 (ATCC CRL-1420); test: Cell growth assay (CellTiterGlo, 72 hours); format: cell-based; settings: MIA PaCa-2, MiaPaCa2 cells, 72 hours, read-out: IC50 MiaPaCa
How it was run: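 MiaPaCa2 cells (10^3/well) seeded in supplemented DMEM overnight, then exposed in quadruplicate to compound at 100 down to 0.1 μM for 72 h at 37° C. Growth read by CellTiterGlo luminescence, medium-only background subtracted, normalised to untreated cells; IC50 = concentration reducing growth to 50%.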

[2] = test system: HCT116 colon carcinoma xenograft; settings: nude mice; cited from earlier work
[3] = test system: B16 melanoma pulmonary metastatic lesions; settings: in vivo; cited from earlier work

T1 sequence (Q9BUB5 whole entry): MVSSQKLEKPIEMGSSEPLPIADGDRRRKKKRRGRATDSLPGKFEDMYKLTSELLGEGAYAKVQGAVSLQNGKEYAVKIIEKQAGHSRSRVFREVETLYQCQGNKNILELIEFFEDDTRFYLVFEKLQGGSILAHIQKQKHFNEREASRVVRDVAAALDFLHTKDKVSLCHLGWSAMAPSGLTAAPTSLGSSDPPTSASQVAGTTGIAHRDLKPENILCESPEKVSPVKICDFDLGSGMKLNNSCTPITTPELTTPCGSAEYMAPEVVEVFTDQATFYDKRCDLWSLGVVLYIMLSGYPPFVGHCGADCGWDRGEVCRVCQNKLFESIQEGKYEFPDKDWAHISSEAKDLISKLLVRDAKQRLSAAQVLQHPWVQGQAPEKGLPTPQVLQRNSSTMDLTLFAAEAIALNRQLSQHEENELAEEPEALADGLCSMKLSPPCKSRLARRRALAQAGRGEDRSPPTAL

SMILES	IC50 (MNK1) [µM]	IC50 [1] [µM]	growth of a HCT116 colon carcinoma xenograft model [2]	outgrowth of B16 melanoma pulmonary metastatic lesions [3]
Nc1ncc(-c2ccccc2)c2cc(O[C@H]3CC[C@H](N)CC3)ccc12 [Example 322]	0.153	2.17	–	–
COc1cc(O[C@H]2CC[C@H](N)CC2)cc2c(-c3cc4ccccc4o3)cnc(N)c12 [Example 323, trans-6-(4-Aminocyclohexoxy)-4-(benzofuran-2-yl)-8-methoxy-isoquinolin-1-amine]	0.211	3.2	–	–
CC(=O)C1=C(O)C=C2Oc3c(C(N)=O)c(O)cc(O)c3[C@]2(C)C1=O [cercosporamidc]	–	–	inhibiting the growth	reduceing the outgrowth
